Measured values published in PubChem BioAssay AID1996.
≈ marks a conversion by molar mass, not a printed value.

Settings: buffer; pH 7.4; 200.0 µM

SMILES | solubility kinetic [µg/mL]
O=[N+]([O-])C1C(c2ccccc2)=NOC1c1ccccc1O (stereo unspecified) | > 42.6
O=C(CSc1ccncc1)Nc1ccc2ccccc2c1 | 2.3 (≈ 7.81 µM)
N#CCN1C(=O)NC2(CCCc3sccc32)C1=O (stereo unspecified) | > 39.2
Cc1ccc(C)c(NS(=O)(=O)c2ccc3oc(=O)ccc3c2)c1 | 1.4 (≈ 4.25 µM)
Cl.Fc1ccc(CN2C3=NCCN3c3ccccc32)cc1 | 43.2
COc1ccc(/C=C2\C(=O)ON=C2c2ccccc2)cc1OC | 45.7 (≈ 148 µM)
Cc1cccc(-c2nnc(SCC(=O)NC3CC3)n2C)c1 | > 45.4
CCn1c(=O)c2ccccc2n(CC(=O)NC2CCCCC2)c1=O | 15.4 (≈ 46.8 µM)
O=C(NNC(=S)Nc1ccc(F)c(Cl)c1)C1CC1 | > 43.2
CC(CC(=O)O)CC(=O)Nc1cc(C(F)(F)F)cc(C(F)(F)F)c1 (stereo unspecified) | > 53.6
COC(=O)N1CCN(c2ccc(C)cc2)C(C)C1 (stereo unspecified) | > 37.2
CCc1ccc2c(CN3CCN(S(=O)(=O)c4ccccc4F)CC3)cc(=O)oc2c1 | 3.4 (≈ 7.9 µM)
Cc1ccc(C)c(NC(=O)CCN2CCCC(C)C2)c1 (stereo unspecified) | 38.5 (≈ 140 µM)
COc1ccc(CCNC2=CC(=O)CC(C)(C)C2)cc1 | 40.4 (≈ 148 µM)
Cc1ccc(NC(=S)Nc2ccc3[nH]c(=O)[nH]c3c2)cc1C | 17.9 (≈ 57.3 µM)
C=C(C)C(=O)OCC(=O)NCc1ccccc1 | 27.2 (≈ 117 µM)
COn1c(-c2ccc(C)cc2)nc2ncccc21 | > 35.9
O=C1CCC([N+](=O)[O-])C(C2CC=CCC2)N1 (stereo unspecified) | > 33.6
O=C(Nc1ccccc1C(=O)N1CCCCC1)c1ccco1 | > 44.8
O=C(COc1ncnc2cc(Cl)ccc12)c1ccccc1 | 3.2 (≈ 10.7 µM)
COC(=O)c1ccc(Nc2ncnc3sccc23)cc1 | 1.8 (≈ 6.31 µM)
CN(Cc1ccccc1)c1ncnc2sccc12 | 32.4 (≈ 127 µM)

SMILES | solubility kinetic [µg/mL]
COc1ccccc1Cc1nc(-c2cccnc2)no1 | 31.9 (≈ 119 µM)
O=Cc1ccc(C(=O)OCC(=O)NC(=O)Nc2ccccc2F)cc1 | 28.9 (≈ 83.9 µM)
CCn1c(=O)c(C(=O)NC(C)c2ccccc2)c(O)c2ccccc21 (stereo unspecified) | < 0.4
N#Cc1ccsc1NC(=O)CN1C(=O)NC2(CCCCC2)C1=O | 47.3 (≈ 142 µM)
S=C(NCc1cccs1)Nc1cccc2ccccc12 | 30.5 (≈ 102 µM)
Cc1ccc(C)c(NC(=S)NC23CN4CN(CN(C4)C2)C3)c1 | > 47.6
N#CC1c2ccccc2C=CN1C(=O)c1ccccc1 (stereo unspecified) | 27.6 (≈ 106 µM)
OC(CNCc1ccccc1)(c1ccccc1)c1ccccc1 | > 45.5
CN1CCN(C(=O)c2cc3sc4ccccc4c3s2)CC1 | > 47.5
O=C(/C=C/c1ccc(Cl)cc1)N1CCOCC1 | 33.3 (≈ 132 µM)
CC(Oc1ccccc1)C(=O)N1CCc2ccccc2C1 (stereo unspecified) | > 42.2
CSc1nc2nc3c(cc2c(=O)n1-c1ccc(C)cc1)COC(C)(C)C3 | 2.3 (≈ 6.26 µM)
O=C(NNC(=O)c1ccncc1)Nc1cccc(C(F)(F)F)c1 | > 48.6
NC(=O)C1CCN(C(=O)/C=C/c2cccc(Br)c2)CC1 | 46.9 (≈ 139 µM)
O=C(Nc1ccc(F)cc1)Nc1ccc2ccccc2n1 | < 0.2
O=C(CC12CC3CC(CC(C3)C1)C2)Nc1ccc(C(=O)O)cc1 | > 47
Cc1ccsc1/C=C1\SC(=S)N(CC2CCCO2)C1=O (stereo unspecified) | < 0.7
Brc1cnc2nc(SCc3nc4ccccc4[nH]3)[nH]c2c1 | 1.2 (≈ 3.33 µM)
O=C1NC(C(F)(F)F)(C(F)(F)F)N=C2SC=CN12 | 41.6 (≈ 143 µM)
C=CCOC(=O)C1=C(C)NC(=O)NC1c1ccc(O)cc1 (stereo unspecified) | > 43.2
O=C(O)/C(=N/NC(=O)c1ccc(Cl)cc1)c1ccccc1 | > 45.4
COc1ccccc1NC(=S)NC1CCCCCCCCCCC1 | < 0.4

SMILES | solubility kinetic [µg/mL]
Cc1cc(C(=O)CN2C(=O)NC(C)(c3cc(F)ccc3F)C2=O)c(C)n1C1CC1 (stereo unspecified) | 48.9 (≈ 122 µM)
CCOC(=O)c1c(C)nsc1NC(=O)C1CCCCC1 | 8.3 (≈ 28 µM)
COc1cccc(Oc2ccc(C(F)(F)F)cc2NC(=O)C2=COCCO2)c1 | 1.5 (≈ 3.79 µM)
CCOC(=O)Cn1c(=O)n(Cc2ccccc2)c(=O)c2cccnc21 | 7.6 (≈ 22.4 µM)
C=CCn1c(SCC(=O)N(C)C)nc2cc(C(=O)O)ccc2c1=O | > 52.1
Cc1ccc(/C=C(\C#N)C(=O)N2CCCC2)c(C)c1 | > 38.1
Cc1ccc(O)c(Nc2ncnc3ccc([N+](=O)[O-])cc23)c1.Cl | 9.6
C=C(C)c1cccc(C(C)(C)NC(=O)NCCN(CC)CC)c1 | 44 (≈ 139 µM)
O=C(Cc1cccs1)Nc1ccc([N+](=O)[O-])cc1 | 39 (≈ 149 µM)
COc1c(-c2ccc([N+](=O)[O-])cc2[N+](=O)[O-])c(=O)n(C)c(=O)n1C | > 50.4
COc1ccccc1NC(=O)CNC(c1ccccc1)c1ccccc1 | 1.2 (≈ 3.46 µM)
Cc1cnc(NS(=O)(=O)c2ccccc2)c(Br)c1 | > 49.1
N#C/C(=C\c1ccc([N+](=O)[O-])cc1)c1ccccn1 | 4.7 (≈ 18.7 µM)
CC(NC(=O)c1ccco1)c1nc(-c2ccccc2)no1 (stereo unspecified) | 31.7 (≈ 112 µM)
O=C(CN1C(=O)c2ccccc2C1=O)Nc1cc([N+](=O)[O-])ccc1O | > 51.2
Cc1cccc(-c2nnc(SCC(=O)Nc3cc(C)on3)n2C)c1 | > 51.5
COc1cc(-c2noc(CCC(=O)NC3CCCCC3)n2)cc(OC)c1OC | 10 (≈ 25.7 µM)
CSc1ccccc1C(=O)NC1CCCc2ccccc21 (stereo unspecified) | 11.7 (≈ 39.3 µM)
COc1ccc(CCNCc2cccn2C)cc1.Cl | 40.5
NC(=O)c1ccc(NC(=O)c2cccc3c2OCCCO3)cc1 | 14.5 (≈ 46.4 µM)
Cc1cc(OCC(O)CN(C)C(=O)C(C)Oc2ccccc2)ccc1Cl (stereo unspecified) | 45.6 (≈ 121 µM)
N#CCC(=O)Nc1ccc(C(=O)OCC(=O)NC2CCCc3ccccc32)cc1 (stereo unspecified) | 7.5 (≈ 19.2 µM)

SMILES | solubility kinetic [µg/mL]
CC(C)CN1C2CCCC1CC(NC(=S)NCc1ccco1)C2 (stereo unspecified) | > 50.3
CSc1ncccc1C(=O)NCCc1ccccc1 | 37.2 (≈ 137 µM)
O=C(NC1CCCCC1)C1CC(=O)N(c2cccc([N+](=O)[O-])c2)C1 (stereo unspecified) | 7.8 (≈ 23.5 µM)
COc1cc(NC(=S)NCCO)c(OC)cc1Cl | > 43.6
Cc1ccn2c(NC3CCCC3)c(-c3ccncc3)nc2c1 | 35.3 (≈ 121 µM)
O=C(c1c[nH]c2ccccc12)N1CCOCC1 | 26.3 (≈ 114 µM)
CCC(=O)Nc1ccc2c(c1)nc(CCNC(=O)c1ccco1)n2C | > 51.1
O=C(CNC(=O)c1sc2ccccc2c1Cl)NC1CC1 | 4 (≈ 13 µM)
O=C(c1ccc(Cl)nc1)N1CCN(C/C=C/c2ccccc2)CC1 | > 51.3
O=C(OCC(=O)N1CCCCC1)c1cc(S(=O)(=O)N2CCOCC2)c(Cl)cc1Cl | 67.7 (≈ 145 µM)
CC(=O)O.O=S(=O)(CCc1ccncc1)C1Cc2cccc3cccc1c23 (stereo unspecified) | 49.4
Cc1nc2ccccc2c2c1CC(C)S2 (stereo unspecified) | 24.5 (≈ 114 µM)
COc1ccccc1NC(=O)/C=C\c1ccco1 | 25.8 (≈ 106 µM)
C=CCC(Nc1ccccc1)c1cccc(OC)c1OC (stereo unspecified) | 10.8 (≈ 38.1 µM)
Cc1ccc2c(c1)c(-c1csc(N)n1)c(C)n2C | 13.4 (≈ 52.1 µM)
C=CCn1cc(C=C2C(=O)N(C)C(=O)N(C)C2=O)c2ccccc21 | 0.8 (≈ 2.47 µM)
Cc1ccc(OCC(=O)N2CCN(S(C)(=O)=O)CC2)cc1 | > 46.9
COc1ccc(C(=O)NC2CCCCCC2)cc1S(=O)(=O)N1CCCC1 | 6 (≈ 15.8 µM)
COc1ccc(OCCC(=O)N2CCN(C)CC2)cc1.Cl | > 47.2
CCOC(=O)C1=C(CC)Nc2ccccc2N=C1N | 14.3 (≈ 55.1 µM)
